Measurements as given in PubChem BioAssay AID328 (DTP/NCI, 2004).
Inconclusive results and toxic doses are left out.

Tested on: BDF1 mice, P388 leukemia ip, median survival T/C
Assay: NCI In Vivo Anticancer Drug Screen. Data for tumor model P388 Leukemia (intraperitoneal) in B6D2F1 (BDF1) mice
Conditions: endpoint: median survival time, higher = longer survival
In short: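 Survival ratio, drug arm over vehicle arm, in mice with a transplanted tumour.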

[1] = dose: 50.0 mg/kg/injection, schedule: Q01DX009 (ip), vehicle: saline with Tween-80
[2] = dose: 100.0 mg/kg/injection, schedule: Q01DX009 (ip), vehicle: saline with Tween-80
[3] = dose: 200.0 mg/kg/injection, schedule: Q01DX009 (ip), vehicle: saline with Tween-80
[4] = dose: 200.0 mg/kg/injection, schedule: Q04DX003 (ip), vehicle: saline with Tween-80
[5] = dose: 400.0 mg/kg/injection, schedule: Q04DX003 (ip), vehicle: saline with Tween-80
[6] = dose: 100.0 mg/kg/injection, schedule: Q01DX001 (ip), vehicle: Klucel (hydroxypropylcellulose) (HPC)
[7] = dose: 200.0 mg/kg/injection, schedule: Q01DX001 (ip), vehicle: Klucel (hydroxypropylcellulose) (HPC)
[8] = dose: 400.0 mg/kg/injection, schedule: Q01DX001 (ip), vehicle: Klucel (hydroxypropylcellulose) (HPC)
[9] = dose: 100.0 mg/kg/injection, schedule: Q04DX003 (ip), vehicle: saline with Tween-80

Oc1cccc2cccnc12.[Cu+].[O-]c1cccc2cccnc12
T/C (dose: 1.87 mg/kg/injection, schedule: Q01DX009 (ip), vehicle: saline): 104 % of control | T/C (dose: 2.75 mg/kg/injection, schedule: Q04DX003 (ip), vehicle: saline): 90 % of control | T/C (dose: 3.75 mg/kg/injection, schedule: Q01DX009 (ip), vehicle: saline): 100 % of control | T/C (dose: 5.5 mg/kg/injection, schedule: Q04DX003 (ip), vehicle: saline): 100 % of control | T/C (dose: 11.0 mg/kg/injection, schedule: Q04DX003 (ip), vehicle: saline): 113 % of control | T/C (dose: 16.0 mg/kg/injection, schedule: Q04DX003 (ip), vehicle: saline): 100 % of control | T/C (dose: 25.0 mg/kg/injection, schedule: Q04DX003 (ip), vehicle: saline): 100 % of control

C(CCC1CO1)CC1CO1 (centres undefined)
T/C (dose: 50.0 mg/kg/injection, schedule: Q04DX005 (ip), vehicle: saline with Tween-80): 115 % of control | T/C (dose: 200.0 mg/kg/injection, schedule: Q04DX002 (ip), vehicle: saline with Tween-80): 173 % of control

Cc1[nH]nc(-c2ccon2)c1N
T/C [1]: 115 % of control | T/C [2]: 119 % of control | T/C [3]: 113 % of control

C[N-]c1nnnn1C.[Au+].c1ccc([PH+](c2ccccc2)c2ccccc2)cc1
T/C (dose: 6.25 mg/kg/injection, schedule: Q01DX009 (ip), vehicle: saline with Tween-80): 108 % of control | T/C (dose: 12.5 mg/kg/injection, schedule: Q01DX009 (ip), vehicle: saline with Tween-80): 108 % of control | T/C (dose: 25.0 mg/kg/injection, schedule: Q01DX009 (ip), vehicle: saline with Tween-80): 108 % of control

CCCCCCCCCCSC#N
T/C (dose: 20.0 mg/kg/injection, schedule: Q04DX003 (ip), vehicle: saline): 87 % of control | T/C (dose: 40.0 mg/kg/injection, schedule: Q04DX003 (ip), vehicle: saline): 91 % of control | T/C (dose: 80.0 mg/kg/injection, schedule: Q04DX003 (ip), vehicle: saline): 91 % of control

CCOC(CN(Cc1ccc(OC)c(OCc2ccccc2)c1)S(=O)(=O)c1ccc(C)cc1)OCC
T/C (dose: 25.0 mg/kg/injection, schedule: Q01DX009 (ip), vehicle: water): 89 % of control | T/C (dose: 50.0 mg/kg/injection, schedule: Q01DX009 (ip), vehicle: water): 99 % of control | T/C (dose: 100.0 mg/kg/injection, schedule: Q01DX009 (ip), vehicle: water): 92 % of control | T/C (dose: 200.0 mg/kg/injection, schedule: Q01DX009 (ip), vehicle: water): 112 % of control | T/C (dose: 400.0 mg/kg/injection, schedule: Q01DX009 (ip), vehicle: water): 99 % of control

CCCCCCCCCCCCCCOc1ccc(Cc2ccccc2)cc1
T/C (dose: 100.0 mg/kg/injection, schedule: Q04DX003 (ip), vehicle: Klucel (hydroxypropylcellulose) (HPC)): 100 % of control | T/C (dose: 200.0 mg/kg/injection, schedule: Q04DX003 (ip), vehicle: Klucel (hydroxypropylcellulose) (HPC)): 90 % of control

COCCCN=C(N)c1ccc(NC(=O)c2ccc(C(=O)Nc3ccc(C(N)=NCCCOC)cc3)cc2)cc1
T/C (dose: 0.22 mg/kg/injection, schedule: Q01DX009 (ip), vehicle: saline with Tween-80): 120 % of control | T/C (dose: 0.5 mg/kg/injection, schedule: Q01DX009 (ip), vehicle: saline with Tween-80): 116 % of control | T/C (dose: 0.66 mg/kg/injection, schedule: Q01DX009 (ip), vehicle: saline with Tween-80): 150 % of control | T/C (dose: 1.0 mg/kg/injection, schedule: Q01DX009 (ip), vehicle: saline with Tween-80): 156 % of control | T/C (dose: 1.5 mg/kg/injection, schedule: Q01DX009 (ip), vehicle: saline with Tween-80): 176 % of control | T/C (dose: 1.78 mg/kg/injection, schedule: Q04DX003 (ip), vehicle: saline with Tween-80): 118 % of control | T/C (dose: 2.25 mg/kg/injection, schedule: Q01DX009 (ip), vehicle: saline with Tween-80): 194 % of control | T/C (dose: 3.75 mg/kg/injection, schedule: Q01DX009 (ip), vehicle: saline with Tween-80): 231 % of control | T/C (dose: 4.0 mg/kg/injection, schedule: Q04DX003 (ip), vehicle: saline with Tween-80): 122 % of control | T/C (dose: 7.5 mg/kg/injection, schedule: Q01DX009 (ip), vehicle: saline with Tween-80): 113 % of control | T/C (dose: 15.0 mg/kg/injection, schedule: Q01DX009 (ip), vehicle: saline with Tween-80): 90 % of control | T/C (dose: 15.0 mg/kg/injection, schedule: Q04DX003 (ip), vehicle: saline with Tween-80): 159 % of control

CCOC(=O)CCN1CCCC1
T/C (dose: 100.0 mg/kg/injection, schedule: Q01DX009 (ip), vehicle: saline): 100 % of control | T/C (dose: 100.0 mg/kg/injection, schedule: Q04DX003 (ip), vehicle: saline): 100 % of control | T/C (dose: 200.0 mg/kg/injection, schedule: Q01DX009 (ip), vehicle: saline): 91 % of control | T/C (dose: 200.0 mg/kg/injection, schedule: Q04DX003 (ip), vehicle: saline): 100 % of control | T/C (dose: 400.0 mg/kg/injection, schedule: Q01DX009 (ip), vehicle: saline): 100 % of control | T/C (dose: 400.0 mg/kg/injection, schedule: Q04DX003 (ip), vehicle: saline): 95 % of control

O=c1[nH]cc(I)cc1I
T/C [4]: 100 % of control | T/C [5]: 100 % of control

Clc1ccc2c(c1)nnn2OC1CCCCC1
T/C [1]: 88 % of control | T/C [2]: 92 % of control | T/C [3]: 90 % of control

CC(=O)c1c(C)[nH]c(C(=O)OC(C)(C)C)c1C
T/C [6]: 113 % of control | T/C [7]: 100 % of control | T/C [8]: 109 % of control

COc1cc(/C=C2/CCCCC2=O)ccc1O
T/C (dose: 100.0 mg/kg/injection, schedule: Q01DX001 (ip), vehicle: other): 104 % of control | T/C (dose: 200.0 mg/kg/injection, schedule: Q01DX001 (ip), vehicle: other): 95 % of control | T/C (dose: 400.0 mg/kg/injection, schedule: Q01DX001 (ip), vehicle: other): 104 % of control

O=C1c2ccccc2C(=O)C1C(C[N+](=O)[O-])c1ccccc1 (centres undefined)
T/C (dose: 25.0 mg/kg/injection, schedule: Q01DX005 (ip), vehicle: saline with Tween-80): 118 % of control | T/C (dose: 50.0 mg/kg/injection, schedule: Q01DX005 (ip), vehicle: saline with Tween-80): 99 % of control

Nc1ccc2c(c1)OCO2
T/C (dose: 100.0 mg/kg/injection, schedule: Q01DX009 (sc), vehicle: olive oil, sesame oil, peanut oil): 104 % of control | T/C (dose: 100.0 mg/kg/injection, schedule: Q04DX003 (sc), vehicle: olive oil, sesame oil, peanut oil): 91 % of control | T/C (dose: 200.0 mg/kg/injection, schedule: Q04DX003 (sc), vehicle: olive oil, sesame oil, peanut oil): 95 % of control | T/C (dose: 400.0 mg/kg/injection, schedule: Q04DX003 (sc), vehicle: olive oil, sesame oil, peanut oil): 116 % of control

CN(C)C(=O)c1cccc(COc2ccc([N+](=O)[O-])cc2Cl)c1
T/C [6]: 109 % of control | T/C (dose: 132.0 mg/kg/injection, schedule: Q01DX009 (ip), vehicle: saline sonified): 91 % of control | T/C [7]: 109 % of control | T/C (dose: 200.0 mg/kg/injection, schedule: Q01DX009 (ip), vehicle: saline sonified): 87 % of control | T/C (dose: 300.0 mg/kg/injection, schedule: Q01DX009 (ip), vehicle: saline sonified): 87 % of control | T/C [8]: 104 % of control

COc1ccc(NC2=CC(C)(C(=O)O)OC2=O)cc1 (centres undefined)
T/C [2]: 100 % of control | T/C [9]: 100 % of control | T/C [3]: 91 % of control | T/C [4]: 110 % of control | T/C (dose: 400.0 mg/kg/injection, schedule: Q01DX009 (ip), vehicle: saline with Tween-80): 108 % of control | T/C [5]: 115 % of control

COC(C(=O)C(O)C(C)O)C1Cc2cc3cc(OC4CC(OC5CC(O)C(O)C(C)O5)C(O)C(C)O4)c(C)c(O)c3c(O)c2C(=O)C1OC1CC(OC2CC(O)C(OC3CC(C)(O)C(O)C(C)O3)C(C)O2)C(O)C(C)O1 (centres undefined)
T/C (dose: 0.03 mg/kg/injection, schedule: Q01DX009 (ip), vehicle: saline): 101 % of control | T/C (dose: 0.06 mg/kg/injection, schedule: Q01DX009 (ip), vehicle: saline): 106 % of control | T/C (dose: 0.13 mg/kg/injection, schedule: Q04DX003 (ip), vehicle: saline): 98 % of control | T/C (dose: 0.25 mg/kg/injection, schedule: Q01DX009 (ip), vehicle: saline): 150 % of control | T/C (dose: 0.25 mg/kg/injection, schedule: Q04DX003 (ip), vehicle: saline): 107 % of control | T/C (dose: 0.5 mg/kg/injection, schedule: Q01DX009 (ip), vehicle: saline): 170 % of control | T/C (dose: 0.5 mg/kg/injection, schedule: Q04DX003 (ip), vehicle: saline): 101 % of control | T/C (dose: 1.0 mg/kg/injection, schedule: Q01DX009 (ip), vehicle: saline): 120 % of control

CCCCCCOC(=O)C(O)c1ccccc1 (centres undefined)
T/C (dose: 50.0 mg/kg/injection, schedule: Q04DX003 (ip), vehicle: saline with Tween-80): 109 % of control | T/C [9]: 95 % of control | T/C [4]: 95 % of control | T/C [5]: 100 % of control
